Bounds are passed on as bounds.

For the experiment, the target named is T1, recombinant human MMP13 catalytic domain (CD) (Homo sapiens, UniProt P45452).
T1 construct: catalytic domain (CD) construct encompassing residues 20-274 (SWISS-PROT P45452); made in house
Briefly: MMP-13 catalytic domain FRET enzyme assay. The class given is biochemical. The note with it: recombinant human MMP-13 catalytic domain. The gist of the method: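 Human MMP-13 catalytic domain (res 20-274, E. coli-expressed), 0.4 nM, cleaving FRET peptide (0.25 μM) in Tris pH 7.5/CaCl2/NaCl/Brij 35, 5% DMSO, 60 min RT; EDTA-quenched, fluorescence 485/535 nm. IC50 from sigmoidal fit of % inhibition. Some compounds also run on APMA-activated full-length MMP13 (2 nM).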
As a reminder, the IC50 is the point on the concentration scale where inhibition reaches its midpoint. `Cc1nc(C(=O)NCc2ccc(F)c(F)c2)cc(C2=NOC(c3ccccn3)C2)n1` (stereo not drawn): the IC50 lay in the range of 10 to 100 nM.

Regarding `COc1cc(CNC(=O)c2cc(C3=NOC(c4ccc(=O)n(CC(=O)N(C)C)c4)C3)nc(C)n2)ccc1F` (stereo not drawn), the IC50 fell in the range of 10 to 100 nM.

Take `COc1cc(CNC(=O)c2cc(C3=NOC(c4ccc(C#N)nn4)C3)nc(C)n2)ccc1F` (stereo not drawn): the IC50 was below 10 nM. For `Cc1nc(C(=O)NCc2ccc(F)c(Cl)c2)cc(C2=NO[C@H]([C@H]3CO[C@H](CO)CO3)C2)n1` [drawing 1069], the IC50 was 10 to 100 nM. With `Cc1nc(C(=O)NCc2ccc3c(c2)NC(=O)CO3)cc(C2=NO[C@@H]([C@H]3CO[C@H](CO)CO3)C2)n1` the figure was 10 to 100 nM. With `COc1cc(CNC(=O)c2cc(C3=NO[C@H]([C@H]4CC[C@H](NC(C)=O)CC4)C3)nc(C)n2)ccc1F` [drawing 1032] the figure was 10 to 100 nM. In the case of `Cc1nc(C(=O)NCc2ccc3c(c2)CCO3)cc(C2=NO[C@H]([C@H]3CO[C@H](CO)CO3)C2)n1`, the IC50 lay in the range of 10 to 100 nM. Then `COc1ccc(CNC(=O)c2cc(C3=NOC(c4ccc(C(=O)O)cc4)C3)ccn2)cc1` (stereo not drawn), with 10 to 100 nM. With `COc1cc(CNC(=O)c2cc(C3=NO[C@H]([C@H]4CO[C@H](CS(C)(=O)=O)CO4)C3)nc(C)n2)ccc1F` the figure was 10 to 100 nM. With `Cc1nc(C(=O)NCc2ccc(F)c(Cl)c2)cc(C2=NO[C@H]([C@H]3CO[C@H](CS(C)(=O)=O)CO3)C2)n1` the figure was below 10 nM; with `COc1cccc(CNC(=O)c2cc(C3=NOC(c4ccc(C(=O)O)cc4)C3)ccn2)c1` (stereo not drawn), below 10 nM; with `COc1cc(CNC(=O)c2cc(C3=NOC(C4CCN(S(C)(=O)=O)CC4)C3)nc(C)n2)ccc1F` (stereo not drawn), below 10 nM. Turning to `COc1cc(CNC(=O)c2cc(C3=NOC(c4ccn(CC(=O)N(C)C)c(=O)c4)C3)nc(C)n2)ccc1F` (stereo not drawn), the 50% inhibitory concentration (IC50) was in the range of 10 to 100 nM.

With `Cc1nc(C(=O)NCc2ccc(=O)n(C)c2)cc(C2=NO[C@H]([C@H]3CO[C@H](CO)CO3)C2)n1`, the IC50 was in the range of 10 to 100 nM. Then `COc1ccc(CNC(=O)c2cc(C3CC(c4ccccc4)=NO3)nc(C)n2)cc1` (stereo not drawn), with 100 to 1000 nM; and `COc1ccc(CNC(=O)c2cc(C3=NOC(c4ccccc4)C3)nc(C)n2)cc1` (stereo not drawn), with 10 to 100 nM; and `Cc1nc(C(=O)NCc2ccc(F)cc2)cc(C2=NOC([C@H]3CC[C@H](NC(=O)[C@H](C)O)CC3)C2)n1` (stereo partly drawn), with 10 to 100 nM.

Turning to `CC(=O)N[C@H]1CC[C@H](C2CC(c3cc(C(=O)NCc4ccn(C)c(=O)c4)nc(C)n3)=NO2)CC1` (stereo partly drawn), the IC50 is above 1000 nM. With `Cc1nc(C(=O)NCc2ccc3c(c2)NC(=O)CO3)cc(C2=NO[C@H]([C@H]3CC[C@H](NC(=O)[C@H](C)O)CC3)C2)n1` the figure was below 10 nM; with `COc1ccc(CNC(=O)c2cc(C3=NOC(c4ccccn4)C3)nc(C)n2)cc1` (stereo not drawn), 100 to 1000 nM.

`COc1cc(CNC(=O)c2cc(C3=NOC(C4CCN(C(=O)CNC(C)=O)CC4)C3)nc(C)n2)ccc1F` (stereo not drawn) [drawing 879]: the half-inhibitory concentration (IC50) lay within 10 to 100 nM. In the case of `COc1cc(CNC(=O)c2cc(C3=NOC(c4ccc(C(C)O)cn4)C3)nc(C)n2)ccc1F` (stereo not drawn), the half-maximal inhibitory concentration (IC50) is below 10 nM. Then `COc1cc(CNC(=O)c2cc(C3=NOC(C4CCN(C(=O)CC#N)CC4)C3)nc(C)n2)ccc1F` (stereo not drawn) [drawing 1065], with 10 to 100 nM; and `COc1cc(CNC(=O)c2cc(C3=NOC(c4ccc(=O)n(C)c4)C3)nc(C)n2)ccc1F` (stereo not drawn), with 10 to 100 nM. With `COc1cc(CNC(=O)c2cc(C3=NOC(c4ccc(N5CCCC5)nn4)C3)nc(C)n2)ccc1F` (stereo not drawn) the figure was above 1000 nM. With `COc1ccc(CNC(=O)c2cc(C3=NO[C@@H](c4ccc(OCCO)cc4)C3)nc(C)n2)cc1` the figure was 10 to 100 nM; with `COc1cc(CNC(=O)c2cc(C3=NOC(c4ccncc4)C3)nc(C)n2)ccc1F` (stereo not drawn), below 10 nM. Regarding `COc1cc(CNC(=O)c2cc(C3=NO[C@@H]([C@H]4CO[C@H](CO)CO4)C3)nc(C)n2)ccc1F` [drawing 1055], the IC50 is 100 to 1000 nM. Then `COc1cc(CNC(=O)c2cc(C3=NOC(c4ccc(C(N)=O)nn4)C3)nc(C)n2)ccc1F` (stereo not drawn), with 10 to 100 nM. With `COc1cc(CNC(=O)c2cc(C3=NOC(c4ccc(C#N)cn4)C3)nc(C)n2)ccc1F` (stereo not drawn) the figure was below 10 nM.

In the case of `COc1cc(CNC(=O)c2cc(C3=NOC(c4ncccn4)C3)nc(C)n2)ccc1F` (stereo not drawn), the 50% inhibitory concentration (IC50) was 10 to 100 nM. For the compound `Cc1nc(C(=O)NCc2cccc(F)c2)cc(C2=NO[C@@H]([C@H]3CO[C@H](CO)CO3)C2)n1`, the IC50 is above 1000 nM.

For `Cc1nc(C(=O)NCc2ccc(F)cc2)cc(C2=NO[C@H]([C@H]3CO[C@@H](CO)CO3)C2)n1`, the IC50 is 10 to 100 nM.

Consider `COc1cc(CNC(=O)c2cc(C3=NOC(C4CCN(C(=O)CCN(C)C)CC4)C3)nc(C)n2)ccc1F` (stereo not drawn), for which the IC50 was 10 to 100 nM.

As to `COc1cc(CNC(=O)c2cc(C3=NOC(C4CCN(S(=O)(=O)c5c(C)noc5C)CC4)C3)nc(C)n2)ccc1F` (stereo not drawn), the IC50 is below 10 nM. With `CC(=O)N[C@H]1CC[C@H](C2CC(c3cc(C(=O)NCc4ccncc4)nc(C)n3)=NO2)CC1` (stereo partly drawn) the figure was 10 to 100 nM; with `CC(=O)N[C@H]1CC[C@H](C2CC(c3cc(C(=O)NCc4ccc5c(c4)NC(=O)CO5)nc(C)n3)=NO2)CC1` (stereo partly drawn), below 10 nM. With `COc1cc(CNC(=O)c2cc(C3=NOC(C4CCC(O)CC4)C3)nc(C)n2)ccc1F` (stereo not drawn) the figure was below 10 nM. With `Cc1nc(C(=O)NCc2ccc(F)c(C)c2)cc(C2=NOC(C3CCN(S(C)(=O)=O)CC3)C2)n1` (stereo not drawn) the figure was below 10 nM.

Take `COc1cc(CNC(=O)c2cc(C3=NO[C@@H]([C@@H]4CO[C@@H](CO)CO4)C3)nc(C)n2)ccc1F`: the half-maximal inhibitory concentration (IC50) lay in the range of 100 to 1000 nM. Then `Cc1nc(C(=O)NCc2ccc3c(c2)NC(=O)CO3)cc(C2=NO[C@@H]([C@H]3CC[C@H](NC(=O)[C@H](C)O)CC3)C2)n1`, with below 10 nM.

Regarding `Cc1nc(C(=O)NCc2ccc3c(c2)NC(=O)CC3)cc(C2=NO[C@@H]([C@H]3CO[C@H](CO)CO3)C2)n1`, the IC50 fell in the range of 100 to 1000 nM. Then `COc1cc(CNC(=O)c2cc(C3=NO[C@H]([C@H]4CO[C@H](CNC(=O)N(C)C)CO4)C3)nc(C)n2)ccc1F`, with 10 to 100 nM; and `COc1cc(CNC(=O)c2cc(C3=NOC(C4CCN(C(=O)C5CCC5)CC4)C3)nc(C)n2)ccc1F` (stereo not drawn), with 10 to 100 nM; and `COc1cc(CNC(=O)c2cc(C3CC(c4ccc(OCCO)cc4)=NO3)nc(C)n2)ccc1F` (stereo not drawn), with 10 to 100 nM.

`Cc1nc(C(=O)NCc2ccc3c(c2)NC(=O)CC3)cc(C2=NO[C@H]([C@H]3CO[C@H](CO)CO3)C2)n1`: the IC50 fell in the range of 10 to 100 nM.

Turning to `COc1cc(CNC(=O)c2cc(C3=NOC(C4CCN(C(=O)CNC(C)=O)CC4)C3)nc(C)n2)ccc1F` (stereo not drawn) [drawing 1064], the IC50 was in the range of 10 to 100 nM. Take `COc1cc(CNC(=O)c2cc(C3=NOC(c4ccc(-c5nc(C)no5)nn4)C3)nc(C)n2)ccc1F` (stereo not drawn): the concentration for half-maximal inhibition (IC50) is below 10 nM. With `COc1cc(CNC(=O)c2cc(C3=NO[C@H]([C@@H]4CO[C@@H](CO)CO4)C3)nc(C)n2)ccc1F` the figure was 10 to 100 nM. Turning to `COc1ccc(CNC(=O)c2cc(C3=NOC(C)(c4ccc(CO)cc4)C3)nc(C)n2)cc1` (stereo not drawn), the IC50 was 100 to 1000 nM.

On to `COc1cc(CNC(=O)c2cc(C3=NOC(c4cnc5[nH]ncc5c4)C3)nc(C)n2)ccc1F` (stereo not drawn), for which the IC50 lay within 10 to 100 nM. Then `COc1cccc(CNC(=O)c2cc(C3=NO[C@@H]([C@H]4CO[C@H](CO)CO4)C3)nc(C)n2)c1`, with above 1000 nM; and `CNC(=O)[C@H]1CC[C@H](C2CC(c3cc(C(=O)NCc4ccc(F)c(OC)c4)nc(C)n3)=NO2)CC1` (stereo partly drawn), with below 10 nM. With `COc1cc(CNC(=O)c2cc(C3=NO[C@H]([C@H]4CO[C@H](CO)CO4)C3)nc(C)n2)ccc1F` the figure was below 10 nM; with `COc1cc(CNC(=O)c2cc(C3=NOC(C4CCN(C(=O)NCCO)CC4)C3)nc(C)n2)ccc1F` (stereo not drawn) [drawing 1067], below 10 nM; with `COc1cc(CNC(=O)c2cc(C3=NOC([C@H]4CC[C@H](CNC(=O)CC#N)CC4)C3)nc(C)n2)ccc1F` (stereo partly drawn), below 10 nM. With `Cc1nc(C(=O)NCc2ccc(F)c(Cl)c2)cc(C2=NO[C@@H]([C@H]3CO[C@H](CO)CO3)C2)n1` [drawing 1070] the figure was above 1000 nM. Turning to `CNC(=O)Cn1nc(C2CC(c3cc(C(=O)NCc4ccc(F)c(OC)c4)nc(C)n3)=NO2)ccc1=O` (stereo not drawn), the IC50 lay within 10 to 100 nM.

Take `COc1ccc(CNC(=O)c2cc(C3=NOC(c4ccc(N5CCCCC5)cc4)C3)nc(C)n2)cc1` (stereo not drawn): the IC50 lay within 100 to 1000 nM. With `Cc1nc(C(=O)NCc2ccc(F)c(C)c2)cc(C2=NOC([C@H]3CC[C@H](NC(=O)[C@H](C)O)CC3)C2)n1` (stereo partly drawn) the figure was below 10 nM. Consider `COc1cc(CNC(=O)c2cc(C3=NOC(C4CCN(C(=O)NC(C)C)CC4)C3)nc(C)n2)ccc1F` (stereo not drawn), for which the IC50 is 10 to 100 nM. Then `COc1cc(CNC(=O)c2cc(C3=NOC(c4ccnc(C(N)=O)c4)C3)nc(C)n2)ccc1F` (stereo not drawn), with 10 to 100 nM; and `COc1cc(CNC(=O)c2cc(C3=NOC(C4CCN(C(=O)Nc5ccon5)CC4)C3)nc(C)n2)ccc1F` (stereo not drawn), with 10 to 100 nM. With `COc1cc(CNC(=O)c2cc(C3=NO[C@H](c4ccc(CO)cc4)C3)nc(C)n2)ccc1F` the figure was above 1000 nM.

For `COc1cc(CNC(=O)c2cc(C3=NO[C@H]([C@H]4CO[C@H](CC#N)CO4)C3)nc(C)n2)ccc1F`, the IC50 is below 10 nM. Then `COc1cc(CNC(=O)c2cc(C3=NOC(c4ccc(C(N)=O)cc4)C3)nc(C)n2)ccc1F` (stereo not drawn), with below 10 nM; and `COc1cc(CNC(=O)c2cc(C3=NOC(c4ccc(C(C)=O)nc4)C3)nc(C)n2)ccc1F` (stereo not drawn), with below 10 nM. With `COc1ccc(CNC(=O)c2cc(C3=NOC(c4nn[nH]n4)C3)nc(C)n2)cc1` (stereo not drawn) the figure was above 1000 nM. With `COc1cc(CNC(=O)c2cc(C3=NO[C@@H](c4ccc(=O)n(C5CC5)c4)C3)nc(C)n2)ccc1F` the figure was 10 to 100 nM.

For the origin of these results see US9029409B2, “Isoxazolines as therapeutic agents” (AbbVie Inc., priority 2011, dated 2015).
